Test results from patent US7884097B2, “Methods and compositions comprising diamines as new anti-tubercular therapeutics” (Sequella, Inc., priority 2003, dated 2011).
Values after ≈ are worked out from the molar mass of the structure shown. “Also recorded” adds a separate entry of the source. Read-outs that look alike come from different tables or passages of the source.

Legend:
H37Rv strain of Mtb = test: microbe, parasite or virus in culture; type: cell-based, M. tuberculosis
Vero monkey kidney cells = test: In vitro toxicity, MTS assay in Vero cells; type: cell-based; settings: for SI (selectivity index, ratio of IC50:MIC): IC50 Vero cells : MIC
Protocol: Cytotoxicity The Vero cell line (ATCC CCL-8 1) was seeded overnight at 5×10^4 cells per well in 96-well plates at 37° C. and 5% CO2 in EMEM with essential amino acids and glutamine (BioFluids) supplemented with 10% heat-inactivated fetal bovine serum (FBS). Cells were exposed to dilutions of experimental and control drugs in triplicate for 72 hr, with each compound at a range of concentrations from 15-200 μM. Chlorpromazine (Sigma) was run as a control at the same concentrations. CellTiter 96 AQueous Assay (Promega) was used for determination of Vero cell viability. Briefly, a solution of MTS salt (3-(4,5-dimethylthiazol-2-yl)-5-(3-carboxymethoxyphenyl)-2-(4-sulfophenyl)-2H-tetrazolium) and phenazine methosulfate was added to each well and plates were incubated for 2 hr at 37° C. and 5% CO2. Absorbance of each well was read using BioRad microplate reader at 490 nm. Viability (absorbance) of cells in drug-exposed wells was compared to those in drug-free control wells, and a curve relating cell viability to drug concentration was created.

M. tuberculosis = settings: background statement; cited from earlier work
M. tuberculosis H37Rv [1] = test: Rapid (3 wk) murine model of TB, body weight loss; type: in vivo, mice; settings: for prevention of body weight loss and mortality: mice iv 10^6 CFU, test drugs 10 mg/kg daily by gavage for 10 days, INH 25 or 2.5 mg/kg; for loss of initial body weight: by day 21 following challenge, 10 mg/kg
M. tuberculosis H37Rv [2] = test: Murine model of chronic TB, CFU in lung and spleen; type: in vivo, mice; settings: for activity against M. tuberculosis in vivo: mice, two models (rapid and chronic)
[3] = test system: M. tuberculosis in TB-infected mouse macrophage RAW 264.7 cells; test: Efficacy in TB-infected macrophages, bioluminescence reporter assay; type: cell-based; settings: for efficacy in macrophages compared to standard drugs (words): RAW 264.7, treated 6 days, 4 timepoints, five concentrations; for intracellular activity compared to EMB and INH: RAW 264.7, 7 days, day 7 readout
HepG2 cell line = test: In vitro cytotoxicity, MTS assay in HepG2 cell line; type: cell-based; settings: Homo sapiens, HepG2 cells
[4] = test system: recombinant mycobacteria containing a promoter fusion of luciferase to Rv0341; type: cell-based, M. tuberculosis; settings: active = exceeds untreated control by 1.5 times
[5] = list of preferred compounds (FIG. 20)
[6] = cytotoxicity, list of preferred compounds (FIG. 20), read-out: IC50
[7] = Mycobacterium tuberculosis, H37RV, list of preferred compounds (FIG. 20), read-out: MIC
[8] = Primates, Vero, cytotoxicity, list of preferred compounds (FIG. 20), read-out: IC50
[9] = Mycobacterium tuberculosis, H37RV, Examples 4 and 5 and screening summary, read-out: MIC
[10] = Mycobacterium tuberculosis, H37RV, read-out: MIC

CC(C)=CCC/C(C)=C/CNCCCN1CCCCC1C (stereo not drawn) [#711, 1-(N-Geranyl)-3-Aminopropylpipecoline]
MIC (H37Rv strain of Mtb; [5]): 6.25 µM (≈ 1.83 µg/mL)

CC1CCCCN1CCCNCc1ccc(C(F)(F)F)cc1 (stereo not drawn) [#712, 1-(N-(4-Trifluorobenzyl)-3-Aminopropyl)pipecoline]
MIC (H37Rv strain of Mtb; [5]): 12.5 µM (≈ 3.93 µg/mL)

Fc1ccccc1N1CCN(C2CCC3CCCCC3C2)CC1 (stereo not drawn) [#765, N-(2-Fluorophenyl)-N′-(2-decalone)piperazine]
IC50 (Vero monkey kidney cells; [6]): 70 µM | MIC (H37Rv strain of Mtb): 6.25 µM (≈ 1.98 µg/mL)

CCOc1ccccc1CN1CCN(c2ccccc2F)CC1 [#766, N-(2-Fluorophenyl)-N′-(2-ethoxybenzyl)piperazine]
SI (selectivity index, ratio of IC50:MIC) (Vero monkey kidney cells): 6.08 | IC50 (Vero monkey kidney cells; Primates, Vero): 76 µM | MIC (H37Rv strain of Mtb; [7]): 12.5 µM (≈ 3.93 µg/mL)

c1ccc(CN2CCN(C3C4CC5CC(C4)CC3C5)CC2)cc1 (stereo not drawn) [#785, N-Benzyl-N′-2-Adamantylpiperazine]
SI (selectivity index, ratio of IC50:MIC) (Vero monkey kidney cells): 7.76 | IC50 (Vero monkey kidney cells; [8]): 97 µM | MIC (H37Rv strain of Mtb; [7]): 12.5 µM (≈ 3.88 µg/mL)

c1ccc(CN2CCN(C3CCC4CCCCC4C3)CC2)cc1 (stereo not drawn) [#787, N-Benzyl-N′-2-Decalonepiperazine]
IC50 (Vero monkey kidney cells; [6]): 70 µM | MIC (H37Rv strain of Mtb; [5]): 12.5 µM (≈ 3.91 µg/mL)

CC[C@@H](CO)NCCN[C@@H](CC)CO [EMB, Ethambutol, reference compound]
Minimum Inhibition Concentration (MIC) (M. tuberculosis): about 5 μg/ml | MIC (H37Rv strain of Mtb; [9]): 12.5 µM (≈ 2.55 µg/mL)

NNC(=O)c1ccncc1 [INH, Isoniazid, reference compound]
prevention of body weight loss and mortality (M. tuberculosis H37Rv [1]): did not show any signs of body loss | MIC (H37Rv strain of Mtb; [9]): 1 µM (≈ 0.137 µg/mL)

C1CN(C2C3CC4CC(C3)CC2C4)CCN(C2C3CC4CC(C3)CC2C4)C1 (stereo not drawn) [SQ775, N,N′-Bis(2-Adamantane)homopiperazine]
activity against M. tuberculosis in vivo (M. tuberculosis H37Rv [2]): promising activity against M.tb in vivo; also recorded: efficacious | efficacy in macrophages compared to standard drugs (words) ([3]; listed as 775): as effective as isoniazid | efficacy in macrophages compared to standard drugs (words) ([3]; listed as #775): equal or superior to ethambutol | inhibition of bacterial growth ([3]; intracellular, RAW 264.7, day 7, concentration 2×MIC): 99% | loss of initial body weight (M. tuberculosis H37Rv [1]): 4% | prevention of body weight loss and mortality (M. tuberculosis H37Rv [1]): prevented body weight loss and delayed mortality | mortality in the group (M. tuberculosis H37Rv [1]; one week after chemotherapy withdrawn, 6 mice): 50% | loss of initial body weight of mice that remained alive (M. tuberculosis H37Rv [1]; ten days later, after chemotherapy withdrawal, 3 mice): about 20% | SI (selectivity index, ratio of IC50:MIC) (Vero monkey kidney cells): 16.92 | IC50 (Vero monkey kidney cells; [8]): 132 µM | MIC (H37Rv strain of Mtb; [9]): 6.25 µM (≈ 2.3 µg/mL) | MIC (H37Rv strain of Mtb; [7]): 7.8 µM (≈ 2.88 µg/mL) | MIC (H37Rv strain of Mtb; [10]): 7.8 µM (≈ 2.88 µg/mL) | IC50 (HepG2 cell line): 132 µM

C1CCCC(N2CCCN(C3CCCCCCC3)CC2)CCC1 [SQ777]
MIC (H37Rv strain of Mtb; [10]): 7.8 µM (≈ 2.5 µg/mL) | IC50 (HepG2 cell line): 74 µM

C1CCC2CC(N3CCCN(C4CCC5CCCCC5C4)CC3)CCC2C1 (stereo not drawn) [SQ778, N,N′-Bis(2-Decalone)homopiperazine]
SI (selectivity index, ratio of IC50:MIC) (Vero monkey kidney cells): 6.92 | IC50 (Vero monkey kidney cells; [8]): 54 µM | MIC (H37Rv strain of Mtb; [7]): 7.8 µM (≈ 2.91 µg/mL) | MIC (H37Rv strain of Mtb; [10]): 7.8 µM (≈ 2.91 µg/mL) | IC50 (HepG2 cell line): 54 µM

CC1(C)C2CC=C(CN3CCCN(CC4=CCC5CC4C5(C)C)CC3)C1C2 [SQ779]
SI (selectivity index, ratio of IC50:MIC) (Vero monkey kidney cells): 14.1 | IC50 (Vero monkey kidney cells; [8]): 110 µM | MIC (H37Rv strain of Mtb; [7]): 7.8 µM (≈ 2.88 µg/mL) | MIC (H37Rv strain of Mtb; [10]): 7.8 µM (≈ 2.88 µg/mL) | IC50 (HepG2 cell line): 110 µM

CCOc1ccccc1CN1CCCN(Cc2ccccc2OCC)CC1 [SQ780, N,N′-Bis(2-Ethoxybenzyl)homopiperazine]
reduction of CFU in spleen (M. tuberculosis H37Rv [2]; 10 mg/kg daily by gavage, 28 days, museum strain of H37Rv): 1 log | activity against M. tuberculosis in vivo (M. tuberculosis H37Rv [2]): efficacious | intracellular activity compared to EMB and INH [3]: equivalent to or better than EMB, but less active than INH | efficacy in macrophages compared to standard drugs (words) [3]: equal or superior to ethambutol | loss of initial body weight (M. tuberculosis H37Rv [1]): 13% | prevention of body weight loss and mortality (M. tuberculosis H37Rv [1]): low efficacy; also recorded: not active | SI (selectivity index, ratio of IC50:MIC) (Vero monkey kidney cells): 18.21 | IC50 (Vero monkey kidney cells; [8]): 71 µM | MIC (H37Rv strain of Mtb; [9]): 1.56 µM (≈ 0.575 µg/mL) | MIC (H37Rv strain of Mtb; [7]): 1.56 µM (≈ 0.575 µg/mL) | MIC (H37Rv strain of Mtb; [10]): 3.9 µM (≈ 1.44 µg/mL) | IC50 (HepG2 cell line): 71 µM

C=C(C)[C@@H]1CC=C(CN2CCCN(CC3=CC[C@@H](C(=C)C)CC3)CC2)CC1 [SQ781]
MIC (H37Rv strain of Mtb; Examples 4 and 5 and screening summary): high MIC

COc1ccccc1CN1CCCN(Cc2ccccc2OC)CC1 [SQ782]
intracellular activity compared to EMB and INH [3]: equivalent to or better than EMB, but less active than INH | efficacy in macrophages compared to standard drugs (words) [3]: equal or superior to ethambutol | MIC (H37Rv strain of Mtb; [9]): 6.25 µM (≈ 2.13 µg/mL) | MIC (H37Rv strain of Mtb; [10]): 7.8 µM (≈ 2.66 µg/mL) | IC50 (HepG2 cell line): 105 µM

c1ccc(COc2ccc(CN3CCN(Cc4ccccc4)CC3)cc2)cc1 [SQ786, N -benzyl-N′-(4-benzyloxy)benzylpiperazine]
activity against M. tuberculosis in vivo (M. tuberculosis H37Rv [2]): promising activity against M.tb in vivo; also recorded: efficacious | activity in the Luc assay [4]: not active | prevention of body weight loss and mortality (M. tuberculosis H37Rv [1]): prevented body weight loss and delayed mortality | MIC (H37Rv strain of Mtb; [9]): 3.9 µM (≈ 1.45 µg/mL) | MIC (H37Rv strain of Mtb; [10]): 3.13 µM (≈ 1.17 µg/mL) | IC50 (HepG2 cell line): 54 µM
